Where no end group is shown, it is not given here.
How the values were obtained:
TGF-β1 = experiment: Amount of TGF-β1 in hepatic tissues of LPS-preadministered partially-hepatectomized mice (ELISA); type: in vivo, mouse; settings: 200 μg/head i.v.; for Hepatic TGF-β1 Contents: Table 3
Procedure: A liver extract was prepared from approximately 100 mg of the hepatic tissues prepared for the use in protein quantitation in 11.2 above, according to the method of Okuno M. et al. (Okuno M. et al., Gastroenterology 2001; 120: 1784-1800). The amount of TGF-β1 in the extract was quantitated using an ELISA kit manufactured by PROMEGA. The quantitated TGF-β1 amount was presented as a pg/mg of protein.
A liver extract was prepared from approximately 30 mg of the hepatic tissues prepared for the use in protein quantitation in 11.2 above, according to the method of Okuno M. et al. (Okuno M. et al., Gastroenterology 2001; 120: 1784-1800). The amount of TGF-β1 in the extract was determined using an ELISA kit manufactured by PROMEGA. The amount of TGF-β1 was presented as a pg/mg protein of the sample. Other conditions were the same as those described in Example 2.

[1] = test system: endotoxin (LPS)-preadministered partially-hepatectomized mice; experiment: LPS-preadministered partially-hepatectomized mice model for impaired liver regeneration, PCNA staining; type: in vivo, mouse; settings: Example 5, 200 μg/head i.v., 8 times; for percentage of PCNA positive cells: 48 hours after PH, FIG. 10; for improvement of impaired liver regeneration caused by preadministration of LPS: PCNA staining, FIG. 9
Procedure: For the experiment, 26 five-week-old male C3H/HeN mice were used. After completion of quarantine and environmental acclimatization, the mice were divided into the following 5 groups according to the body weight of each mouse on the day of grouping. These include, a group to which saline was preadministered and saline was then administered (G1: n=6); a group to which LPS was preadministered and saline was then administered (G2: n=6); a group to which LPS was preadministered and QP peptide was then administered (G3: n=4); a group to which LPS was preadministered and QPA peptide was then administered (G4: n=4); and a group to which LPS was preadministered and T200 peptide was then administered (G5: n=6) (Table 2).
After starting the test, 7 μg of LPS (saline in the case of G1) was intraperitoneally administered. Forty-eight hours later, partial hepatectomy was carried out on all the mice. Another forty-eight hours later, all the surviving mice were subjected to an autopsy. In the autopsy, blood was collected. Thereafter, 1 to 3 mice from each group were subjected to systemic perfusion with 4% paraformaldehyde (PFA), and the liver was then excised. All the excised lobes were embedded in an embedding agent “Tissue Mount” in a frozen state. On the other hand, the remaining 1 to 3 mice from each group were not subjected to systemic perfusion, and a portion of the liver was fixed with formalin, and the remaining portion was collected to be used as a frozen sample (used for mRNA and for protein quantitation). The organ that had been fixed with formalin was processed into a block, and it was then preserved together with the frozen sample in a deep freezer at −80° C.
Preparation method: A small amount of saline was added to one vial container that contained 5 mg of LPS, and it was then dissolved therein. Subsequently, the resultant solution was transferred into another container, and saline was then gradually added thereto to a total amount of 5 mL. The thus obtained solution was defined as a 1 μg/μL solution. 350 μL was collected from the obtained solution by precise weighing, and it was then added to a container that contained 4.65 mL of a sterilized normal saline solution (solvent). Thereafter, the mixed solution was filtrated and sterilized using a 0.22-μm filter, and the resultant was used as a sample to be administered. 7.2 LPS Administration Method Dose: 7 μg/head Administration route: intraperitoneal administration Administration volume: 0.1 mL/head Administration number: once (single administration) Administration timing: 48 hours before partial hepatectomy Target animal: G2 to G5 (To G1, saline was administered.) 8. Administration of Test Substance 8.1 Preparation of Peptide-Administering Sample Preparation frequency: once Preparation method: A peptide was dissolved in saline to a concentration of 2 mg/ml, and the resultant was used as a sample to be administered. Preservation method: The sample was preserved in a refrigerator before use. (The temperature was set at 4° C.) 8.2 Peptide Administration Method Dose: 200 μg/head Administration route: intravenous administration Administration volume: 0.11 mL/head Administration timing: 50, 38, 24, 14 and 2 hours before, and 10, 24 and 34 after partial hepatectomy Number of administration: twice/day, for 4 days (in principle, at 9:00 and at 19:00), 8 times in total Target animal: […] (To G1 and G2, saline was administered.) 9. Partial Hepatectomy (⅔ Partial Hepatectomy; PH) 9.1 Treating Method
Using a rotary microtome (Leica), a hepatic tissue section with a thickness of 5 μm was prepared from the embedded hepatic tissues. A proliferating cell nuclear antigen (PCNA; a proliferating cell marker) was stained according to the previously reported method (Greenwell A. et al., Cancer Lett 1991; 59: 251-256) using a Histofine kit (Nichirei Corporation). […]

N-52QILSAAAAASP62-C (QILSAAALASP) [QPA peptide, mutant of QP peptide with Lys56, Leu57, Arg58 and Leu59 substituted with Ala]
hepatic contents of TGF-β1, times higher than the value of the control group (TGF-β1; Example 2, LPS + PH): approximately 1.4 times
Hepatic TGF-β1 Contents (TGF-β1; Example 2, LPS + PH): 10 ± 11 pg/mg protein
hepatic contents of TGF-β1, times higher than the value of the control group (TGF-β1; Example 5, LPS + PH, FIG. 11): ~0.7 times
percentage of PCNA positive cells [1]: 70%
improvement of impaired liver regeneration caused by preadministration of LPS [1]: significantly improved

N-52QILSQQQQASP62-C [QPQ peptide, mutant of QP peptide with Lys56, Leu57, Arg58 and Leu59 substituted with Gln]
hepatic contents of TGF-β1, times higher than the value of the control group (TGF-β1; Example 5, LPS + PH, FIG. 11): approximately 1.6 times
percentage of PCNA positive cells [1]: 64%
improvement of impaired liver regeneration caused by preadministration of LPS [1]: significantly improved

QILSKLRLASP [QP peptide]
hepatic contents of TGF-β1, times higher than the value of the control group (TGF-β1; Example 5, LPS + PH, FIG. 11): approximately 1.6 times
percentage of PCNA positive cells [1]: 66%
improvement of impaired liver regeneration caused by preadministration of LPS [1]: significantly improved

TGVVRQWLSRG [T200 peptide, reference compound]
hepatic contents of TGF-β1, times higher than the value of the control group (TGF-β1; Example 2, LPS + PH): approximately 3 times
Hepatic TGF-β1 Contents (TGF-β1; Example 2, LPS + PH): 20 ± 26 pg/mg protein
hepatic contents of TGF-β1, times higher than the value of the control group (TGF-β1; Example 5, LPS + PH, FIG. 11): 3.1 times
percentage of PCNA positive cells [1]: 45%
improvement of impaired liver regeneration caused by preadministration of LPS [1]: did not exhibit such an improving effect

— patent US7732401B2, “Inhibitor of TGF-β activation reaction” (Riken, priority 2007, dated 2010)
